The results in this text go back to the Kinase Knowledgebase extract (Sharma et al. 2016).

The target of one test is PIK3CD (Human) (UniProt O00329). The test is described as follows: Assessment of PIK3CD Kinase Activity.
The next test addresses PIK3CA (human) (UniProt P42336). The test is described as follows: Assessment of PIK3CA Kinase Activity.
Another test concerns the target PIK3CB (Human) (UniProt P42338). The test is described as follows: Assessment of PIK3CB Kinase Activity.

PIK3CA (human), sequence (P42336 whole entry, looked up): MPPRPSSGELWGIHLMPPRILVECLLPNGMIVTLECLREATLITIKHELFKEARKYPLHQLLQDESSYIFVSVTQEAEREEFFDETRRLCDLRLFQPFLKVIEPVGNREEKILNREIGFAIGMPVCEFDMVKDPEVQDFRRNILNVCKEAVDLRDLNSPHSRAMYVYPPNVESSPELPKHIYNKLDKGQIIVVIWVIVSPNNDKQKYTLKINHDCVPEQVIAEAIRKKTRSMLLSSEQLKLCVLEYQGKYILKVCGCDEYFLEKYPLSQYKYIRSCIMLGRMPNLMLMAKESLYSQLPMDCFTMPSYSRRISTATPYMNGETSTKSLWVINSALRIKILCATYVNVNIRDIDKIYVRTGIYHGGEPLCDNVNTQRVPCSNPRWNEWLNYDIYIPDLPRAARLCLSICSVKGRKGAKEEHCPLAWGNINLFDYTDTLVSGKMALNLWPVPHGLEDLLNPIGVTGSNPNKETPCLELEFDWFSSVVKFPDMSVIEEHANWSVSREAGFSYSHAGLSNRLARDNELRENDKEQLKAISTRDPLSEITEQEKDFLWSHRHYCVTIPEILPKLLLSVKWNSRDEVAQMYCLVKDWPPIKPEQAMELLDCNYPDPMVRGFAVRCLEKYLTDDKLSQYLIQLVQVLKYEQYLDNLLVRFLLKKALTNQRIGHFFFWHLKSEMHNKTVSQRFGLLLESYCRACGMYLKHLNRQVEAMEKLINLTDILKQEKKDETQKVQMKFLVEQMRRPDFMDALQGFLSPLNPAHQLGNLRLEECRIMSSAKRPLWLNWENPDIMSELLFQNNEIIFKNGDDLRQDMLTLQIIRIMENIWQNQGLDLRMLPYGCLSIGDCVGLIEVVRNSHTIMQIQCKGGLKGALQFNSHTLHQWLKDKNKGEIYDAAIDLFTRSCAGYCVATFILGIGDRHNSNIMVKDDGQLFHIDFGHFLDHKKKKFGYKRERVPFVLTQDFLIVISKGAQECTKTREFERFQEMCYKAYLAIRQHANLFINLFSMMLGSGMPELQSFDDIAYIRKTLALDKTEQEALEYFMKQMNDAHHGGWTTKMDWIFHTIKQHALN
PIK3CB (Human), sequence (P42338 whole entry, looked up): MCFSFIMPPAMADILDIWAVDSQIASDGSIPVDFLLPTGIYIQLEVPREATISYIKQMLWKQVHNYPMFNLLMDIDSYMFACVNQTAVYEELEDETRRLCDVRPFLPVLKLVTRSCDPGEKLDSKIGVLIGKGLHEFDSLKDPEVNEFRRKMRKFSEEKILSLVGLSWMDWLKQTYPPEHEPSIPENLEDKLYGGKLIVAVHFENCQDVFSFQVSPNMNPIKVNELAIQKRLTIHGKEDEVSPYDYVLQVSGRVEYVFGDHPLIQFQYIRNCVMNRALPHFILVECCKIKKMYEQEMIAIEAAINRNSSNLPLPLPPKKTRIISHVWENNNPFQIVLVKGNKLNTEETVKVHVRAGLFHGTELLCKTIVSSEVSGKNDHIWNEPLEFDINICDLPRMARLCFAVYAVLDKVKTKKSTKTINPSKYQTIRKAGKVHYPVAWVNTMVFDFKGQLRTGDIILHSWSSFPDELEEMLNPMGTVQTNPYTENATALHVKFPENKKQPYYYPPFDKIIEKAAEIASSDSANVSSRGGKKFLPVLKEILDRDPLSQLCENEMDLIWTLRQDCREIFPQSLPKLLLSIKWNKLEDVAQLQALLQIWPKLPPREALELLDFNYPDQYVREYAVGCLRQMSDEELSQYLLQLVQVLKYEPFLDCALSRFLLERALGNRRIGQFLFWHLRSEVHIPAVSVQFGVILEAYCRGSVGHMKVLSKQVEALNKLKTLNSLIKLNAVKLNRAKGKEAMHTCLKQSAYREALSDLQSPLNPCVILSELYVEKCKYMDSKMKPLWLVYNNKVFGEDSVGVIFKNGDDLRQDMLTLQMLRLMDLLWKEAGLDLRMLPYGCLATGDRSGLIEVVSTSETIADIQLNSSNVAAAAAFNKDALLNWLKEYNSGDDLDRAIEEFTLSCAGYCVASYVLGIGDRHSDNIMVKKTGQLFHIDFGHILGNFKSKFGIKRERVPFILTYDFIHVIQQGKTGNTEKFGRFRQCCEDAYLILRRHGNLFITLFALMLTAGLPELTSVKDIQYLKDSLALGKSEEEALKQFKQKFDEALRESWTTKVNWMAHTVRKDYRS
PIK3CD (Human), sequence (O00329 whole entry, looked up): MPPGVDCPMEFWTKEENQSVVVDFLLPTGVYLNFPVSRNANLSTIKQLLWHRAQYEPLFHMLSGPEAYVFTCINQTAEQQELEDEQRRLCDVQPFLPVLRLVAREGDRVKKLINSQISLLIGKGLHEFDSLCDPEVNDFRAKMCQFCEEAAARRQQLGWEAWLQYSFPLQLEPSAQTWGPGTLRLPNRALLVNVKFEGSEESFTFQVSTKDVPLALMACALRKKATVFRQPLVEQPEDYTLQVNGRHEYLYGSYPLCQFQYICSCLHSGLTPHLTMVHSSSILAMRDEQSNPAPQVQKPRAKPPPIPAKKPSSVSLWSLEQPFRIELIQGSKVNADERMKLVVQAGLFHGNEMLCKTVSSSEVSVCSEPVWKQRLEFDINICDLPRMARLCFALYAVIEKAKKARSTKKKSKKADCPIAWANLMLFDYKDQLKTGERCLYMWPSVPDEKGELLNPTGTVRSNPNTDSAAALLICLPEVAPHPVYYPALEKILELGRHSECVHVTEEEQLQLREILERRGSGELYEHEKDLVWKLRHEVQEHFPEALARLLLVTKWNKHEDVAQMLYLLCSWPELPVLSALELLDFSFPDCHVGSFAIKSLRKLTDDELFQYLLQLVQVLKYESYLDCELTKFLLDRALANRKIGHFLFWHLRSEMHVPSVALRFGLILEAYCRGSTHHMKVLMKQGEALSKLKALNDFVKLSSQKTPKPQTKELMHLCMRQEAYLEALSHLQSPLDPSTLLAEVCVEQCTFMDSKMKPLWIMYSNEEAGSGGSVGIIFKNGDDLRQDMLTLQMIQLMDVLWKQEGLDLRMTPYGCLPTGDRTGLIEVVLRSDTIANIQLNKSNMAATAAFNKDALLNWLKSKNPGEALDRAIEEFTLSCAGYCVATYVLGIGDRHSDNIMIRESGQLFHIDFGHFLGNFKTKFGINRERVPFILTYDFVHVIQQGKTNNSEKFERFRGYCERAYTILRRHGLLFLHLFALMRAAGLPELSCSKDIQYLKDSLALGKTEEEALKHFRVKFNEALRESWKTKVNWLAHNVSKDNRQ

Take `COc1cccc2c1nc(C(F)F)n2-c1nc(Nc2cccnc2)nc(N2CCOCC2)n1`: the IC50 (in general, the concentration at which inhibition is half-maximal) against PIK3CD (Human) was less than 100 nM; against PIK3CA (human) it was less than 100 nM; against PIK3CB (Human), 100 to 1000 nM.
With `FC(F)c1nc2ccccc2n1-c1nc(Oc2ccccc2)nc(N2CCOCC2)n1`, the IC50 against PIK3CA (human) and against PIK3CB (Human) was greater than 10000 nM each time.
With `COc1cc(N)cc2c1nc(C(F)F)n2-c1nc(-c2ccn(C)n2)nc(N2CCOCC2)n1`, the IC50 against PIK3CD (Human) and on PIK3CA (human) was less than 100 nM each time.
On to `COc1ncc(Nc2nc(N3CCOCC3)nc(-n3c(C(F)F)nc4c(OC)cccc43)n2)cn1`, for which the results for the IC50 against PIK3CD (Human), against PIK3CA (human) and against PIK3CB (Human) were less than 100 nM, less than 100 nM and 100 to 1000 nM, respectively.
For `COc1ccc(Nc2nc(N3CCOCC3)nc(-n3c(C(F)F)nc4c(OC)cccc43)n2)cn1`, the IC50 against PIK3CD (Human), on PIK3CA (human) and on PIK3CB (Human) was less than 100 nM in each case.
Regarding `FC(F)c1nc2ccccc2n1-c1nc(Nc2ccncc2)nc(N2CCOCC2)n1`, the IC50 is less than 100 nM against PIK3CD (Human), less than 100 nM at PIK3CA (human) and 100 to 1000 nM at PIK3CB (Human).
Regarding `FC(F)c1nc2ccccc2n1-c1nc(Nc2cnc3ccccc3c2)nc(N2CCOCC2)n1`, the IC50 at PIK3CD (Human) and against PIK3CA (human) was 100 to 1000 nM throughout.
Turning to `CN(c1ccccc1)c1nc(N2CCOCC2)nc(-n2c(C(F)F)nc3ccccc32)n1`, the IC50 against PIK3CD (Human), against PIK3CA (human) and at PIK3CB (Human) was 100 to 1000 nM each time.
For the compound `COc1cccc2c1nc(C(F)F)n2-c1nc(N2CCOCC2)nc(N(C)c2cccnc2)n1`, the IC50 against PIK3CD (Human), on PIK3CA (human) and against PIK3CB (Human) was less than 100 nM in each case.
Regarding `COc1cccc2c1nc(C(F)F)n2-c1nc(Nc2ccc(N(C)C)nc2)nc(N2CCOCC2)n1`, the IC50 against PIK3CD (Human) was less than 100 nM; on PIK3CA (human), less than 100 nM; at PIK3CB (Human), 100 to 1000 nM.
With `COc1cccc2c1nc(C(F)F)n2-c1nc(Nc2cccnn2)nc(N2CCOCC2)n1`, the IC50 on PIK3CD (Human) was less than 100 nM; against PIK3CA (human), less than 100 nM; against PIK3CB (Human), 100 to 1000 nM.
At PIK3CA (human), `FC(F)c1nc2ccccc2n1-c1nc(Oc2cccnc2)nc(N2CCOCC2)n1` showed an IC50 of 100 to 1000 nM.
Take `FC(F)c1nc2ccccc2n1-c1nc(-c2cncnc2)cc(N2CCOCC2)n1`: the IC50 against PIK3CD (Human) and against PIK3CA (human) was 100 to 1000 nM throughout.
For the compound `COc1cc(N)cc2c1nc(C(F)F)n2-c1nc(N2CCOCC2)nc(-n2cccn2)n1`, the IC50 against PIK3CD (Human) and at PIK3CA (human) was less than 100 nM throughout.
Regarding `COc1ccc(Nc2nc(N3CCOCC3)nc(-n3c(C(F)F)nc4c(OC)cccc43)n2)nn1`, the values for the IC50 against PIK3CD (Human), against PIK3CA (human) and on PIK3CB (Human) were less than 100 nM, less than 100 nM and 100 to 1000 nM, respectively.
Consider `FC(F)c1nc2ccccc2n1-c1nc(Nc2cncnc2)nc(N2CCOCC2)n1`, for which the IC50 was less than 100 nM at PIK3CD (Human), less than 100 nM against PIK3CA (human) and 100 to 1000 nM on PIK3CB (Human).
On to `FC(F)c1nc2ccccc2n1-c1nc(Nc2cccnn2)nc(N2CCOCC2)n1`, for which the IC50 against PIK3CD (Human) was less than 100 nM; against PIK3CA (human) it was less than 100 nM; against PIK3CB (Human) it was 100 to 1000 nM.
Take `FC(F)c1nc2ccccc2n1-c1nc(Nc2ccccc2)nc(N2CCOCC2)n1`: the IC50 at PIK3CD (Human) is less than 100 nM; on PIK3CA (human), 100 to 1000 nM; against PIK3CB (Human), 100 to 1000 nM.
In the case of `CNc1ccc(Nc2nc(N3CCOCC3)nc(-n3c(C(F)F)nc4c(OC)cccc43)n2)cn1`, the results for the IC50 at PIK3CD (Human), on PIK3CA (human) and on PIK3CB (Human) were less than 100 nM, less than 100 nM and 100 to 1000 nM, respectively.
In the case of `COc1cccc2c1nc(C(F)F)n2-c1nc(Nc2ccc(F)nc2)nc(N2CCOCC2)n1`, the values for the concentration for half-maximal inhibition (IC50) at PIK3CD (Human), on PIK3CA (human) and at PIK3CB (Human) were less than 100 nM, less than 100 nM and 100 to 1000 nM, respectively.
`COc1cccc2c1nc(C(F)F)n2-c1nc(N2CCOCC2)nc(-n2cccn2)n1`: the IC50 on PIK3CD (Human) and on PIK3CA (human) was less than 100 nM throughout.
`FC(F)c1nc2ccccc2n1-c1nc(NCc2cccnc2)nc(N2CCOCC2)n1`: the IC50 on PIK3CD (Human) is less than 100 nM; against PIK3CA (human), 100 to 1000 nM; against PIK3CB (Human) it was 100 to 1000 nM.
At PIK3CA (human), `FC(F)c1nc2ccccc2n1-c1nc(Nc2ncccn2)nc(N2CCOCC2)n1` had an IC50 of 100 to 1000 nM.
Turning to `FC(F)c1nc2ccccc2n1-c1nc(NCc2ccccn2)nc(N2CCOCC2)n1`, the IC50 against PIK3CD (Human), on PIK3CA (human) and against PIK3CB (Human) was less than 100 nM throughout.
`COc1cccc2c1nc(C(F)F)n2-c1nc(Nc2ccncn2)nc(N2CCOCC2)n1`: the results for the IC50 on PIK3CD (Human), on PIK3CA (human) and against PIK3CB (Human) were less than 100 nM, less than 100 nM and 100 to 1000 nM, respectively.
With `Cn1cc(Nc2nc(N3CCOCC3)nc(-n3c(C(F)F)nc4ccccc43)n2)cn1`, the results for the IC50 at PIK3CD (Human), against PIK3CA (human) and on PIK3CB (Human) were less than 100 nM, less than 100 nM and 100 to 1000 nM, respectively.
